From patent US20250163072A1, “MACROCYCLIC COMPOUNDS FOR THE TREATMENT OF CANCER” (Hoffmann-La Roche Inc., priority 2021, published 2025)
Like-named read-outs stand apart in the source and are kept apart here.

Assays:
[1] = GSH reaction rates (inherent GSH reactivity); assay type: in vitro ADME
Experimental: (§1) Therefore Strategy to minimize the GSH metabolism is very critical. Short T1/2 in inherent GSH reaction indicated high GSH reaction rate. Thus T1/2 in inherent GSH reaction assay was determined for the screening of candidates. Reference compounds and compounds of this invention potentially could form conjugation with GSH either through halogenated moieties substitution reaction or direct Michael addition reaction. This test was therefore performed to check GSH reactivity of listed compounds. For inherent GSH reactivity determination, compounds at 1 μM were incubated at 37° C. with and without 5 mM GSH for 0, 0.5, 1, 2, 4 and 6 h in 100 mM potassium phosphate buffer at pH 7.4. At the end of the designated time points, samples were quenched with acetonitrile containing 10 mM N-ethylmaleimide and an internal standard. Quenched samples were centrifuged, and supernatants were analyzed by LC-MS/MS for compound quantification.

GSH = GSH reaction rates (inherent GSH reactivity); assay type: in vitro ADME; conditions: buffer, pH 7.4
Experimental: as §1

[2] = system: KRAS G12C in NCI-H358 cells; experiment: pERK inhibition assay, NCI-H358; assay type: cell-based, human; conditions: 4 hours incubation
How it was run: (§2)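 NCI-H358, AGS and SW620 cells in RPMI-1640/10% FBS were plated overnight, then exposed to compound (0.5% DMSO final) for 4 h. After fixation and permeabilization, phospho-ERK was quantified by in-cell ELISA (HRP secondary, TMB, OD450); IC50 from a 4-parameter sigmoidal fit.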

KRAS G12D in AGS cells = experiment: pERK inhibition assay, AGS; assay type: cell-based, human; conditions: 4 hours incubation
How it was run: as §2

KRAS G12V in SW620 = experiment: pERK inhibition assay, SW620; assay type: cell-based, human; conditions: 4 hours incubation
How it was run: as §2

NCI-H358 cells = experiment: Cell viability assay, NCI-H358; assay type: cell-based, human; conditions: NCI-H358, 72 hours, Cell Counting Kit-8, read-out: G12C IC50
How it was run: (§3)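 Cells were plated at 5,000 (NCI-H358) or 2,000 (AGS, SW620) per well and incubated overnight. They were then treated with compound in 0.5% DMSO for 72 h. Viability was read with CCK-8 as OD450 minus OD650 after 2 h, and IC50 came from a 4-parameter sigmoidal fit.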

AGS cells = experiment: Cell viability assay, AGS; assay type: cell-based, human; conditions: 72 hours, Cell Counting Kit-8, read-out: G12D IC50
How it was run: as §3

SW620 cells = experiment: Cell viability assay, SW620; assay type: cell-based, human; conditions: Cell Counting Kit-8, read-out: G12V IC50
How it was run: as §3

[3] = Human hepatocytes stability assay; assay type: in vitro ADME; conditions: for CL_hep (Human): 1 μM compound, human hepatocytes 1×10^6 cells/mL
Experimental: The hepatocyte stability assay measures the rate of disappearance of a compound from incubations with cryopreserved suspension hepatocytes from human. Positive controls, including Midazolam, Raloxifene and Dextromethorphan, are included in every experiment. Incubations consist of 1 μM tested compound and suspension of human hepatocytes (1×10^6 cells/mL) in supplemented Williams' E Medium with […] and 0.5% Penicillin-streptomycin. The hepatocyte suspension was incubated with intermittent shaking 900 rpm at 37° C., in a 5% CO2 incubator. The reaction was stopped by adding methanol containing internal standard (2 μM Tolbutamide) at 2, 10, 20, 40, 60 and 120 minutes after compound addition, depletion of the parent compound was monitored by LC-MS/MS analysis.

KRAS G12C-BRAF complex [4] = biological target: T1, KRAS G12C-BRAF complex (Homo sapiens (Human), UniProt P01116+P62937, G12C); experiment: KRAS G12C-BRAF NanoBit assay; assay type: cell-based; conditions: HEK293 cells, SmBit-KRAS G12C and BRAF RBD-LgBit, 3 hours incubation
Experimental: This assay is to measure the ability of tested compounds in disruption of the KRAS G12C-BRAF complex at the cellular level, we established the NanoBit cellular assay in mammalian HEK293 (ATCC) cells. HEK293 cells were grown and maintained using DMEM medium (Thermo Fisher Scientific) with 10% fetal bovine serum and 1% penicillin/streptomycin. Both KRAS G12C and BRAF RBD were cloned into the NanoBit vectors ([…] vectors system, Promega) with the orientations SmBit-KRAS G12C and BRAF RBD-LgBit, respectively, and co-transfected into HEK293 cells. Cells were then selected with 100 μg/mL Hygromycin B (10687010, Thermo Fisher) and Blasticidin (5 μg/mL) for 4 weeks to get the stable cell pool. On the day of the assay, 75 nL of compound solution was presented in a 384-well assay plate as a 16-point 3-fold dilution starting from a final concentration of 30 μM in DMSO. Then cells were seeded at 10,000 cells/25 μL/well in a 384-well plate. After 3 hours of incubation, 6 μL of volume of Nano-Glo® Live Cell Substrate (Promega) was added into each well. Monitor luminescence using ultra384 model in Envision at 20 minutes. Compounds that facilitate disruption of the KRAS G12C-BRAF RBD complex were identified as those eliciting a decrease of luminescence relative to DMSO control wells.

KRAS G12C-BRAF complex [5] = biological target: T1, KRAS G12C-BRAF complex; experiment: KRAS-BRAF with CYPA (50 nM) interaction assay (TR-FRET), G12C; assay type: binding; conditions: GMPPNP loaded 6His-KRAS, GST-BRAF RBD
Experimental: (§4) In this example, TR-FRET was also used to measure the compound or compound-CYPA dependent disruption of the KRAS G12C-BRAF complex. This protocol was also used to measure disruption of KRAS G12D or KRAS G12V binding to BRAF by a compound of the invention, respectively. In assay buffer containing 25 mM HEPES PH=7.4 (4-(2-hydroxyethyl)-1-piperazineethanesulfonic acid, Thermo, 15630080), 0.002% Tween20, 0.1% BSA, 100 mM NaCl, 5 mM MgCl2, 10 μM GMPPNP (Guanosine 5'-[β,γ-imido]triphosphate trisodium salt hydrate, Sigma, G0635), tagless CYPA, GMPPNP loaded 6His-KRAS proteins, and GST-BRAF^RBD were mixed in a well of a 384-well assay plate at final concentrations of 50 nM, 6.25 nM and 1 nM, respectively. Compound was present in plate wells as a 16-point 3-fold dilution series starting at a final concentration of 10 μM and incubated for 3 hours. A mixture of MAb Anti-6His-XL665 (Cisbio, 61HISXLB) and Mab anti-GST-TB cryptate (Cisbio, 61GSTTLB) was then added at a final concentration of 6.67 nM and 0.21 nM, respectively, and the plate was incubated for an additional 1.5 hours. TR-FRET signal was read on a […] microplate reader (Ex320 nm, Em 665/615 nm). Compounds that facilitate disruption of the KRAS-BRAF complex were identified as those eliciting a decrease in the TR-FRET ratio relative to DMSO control wells.

[6] = biological target: KRAS G12D binding to BRAF (Homo sapiens (Human), UniProt P01116+P62937, G12D); experiment: KRAS-BRAF with CYPA (50 nM) interaction assay (TR-FRET), G12D; conditions: GMPPNP loaded 6His-KRAS, GST-BRAF RBD
Experimental: as §4

[7] = biological target: KRAS G12V binding to BRAF (Homo sapiens (Human), UniProt P01116+P62937, G12V); experiment: KRAS-BRAF with CYPA (50 nM) interaction assay (TR-FRET), G12V; conditions: GMPPNP loaded 6His-KRAS, GST-BRAF RBD
Experimental: as §4

[8] = Homo sapiens, SW-620, SW620 cells
[9] = Homo sapiens, SW-620, SW620, 72 hours

T1 sequence (P01116-2 other isoform, or with tags, fused parts or gaps G12C): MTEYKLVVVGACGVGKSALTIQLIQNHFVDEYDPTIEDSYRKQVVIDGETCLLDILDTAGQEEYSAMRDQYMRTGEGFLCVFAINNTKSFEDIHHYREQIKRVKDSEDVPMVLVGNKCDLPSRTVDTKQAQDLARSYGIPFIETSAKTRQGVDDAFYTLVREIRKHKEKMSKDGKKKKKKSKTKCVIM
T1 sequence (P62937 whole entry): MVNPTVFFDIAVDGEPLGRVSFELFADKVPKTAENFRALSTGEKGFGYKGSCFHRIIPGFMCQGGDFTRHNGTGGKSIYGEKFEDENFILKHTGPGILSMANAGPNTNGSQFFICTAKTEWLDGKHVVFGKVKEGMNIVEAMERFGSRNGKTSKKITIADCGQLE
Chain of KRAS G12D binding to BRAF (P01116-2 other isoform, or with tags, fused parts or gaps G12D): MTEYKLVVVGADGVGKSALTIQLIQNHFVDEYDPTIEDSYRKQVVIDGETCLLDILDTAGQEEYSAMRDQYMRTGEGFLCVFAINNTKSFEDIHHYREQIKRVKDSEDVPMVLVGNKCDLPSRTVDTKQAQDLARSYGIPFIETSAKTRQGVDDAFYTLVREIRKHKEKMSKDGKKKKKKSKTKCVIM
Chain of KRAS G12D binding to BRAF (P62937 whole entry): as the sequence (P62937 whole entry) above
Chain of KRAS G12V binding to BRAF (P01116-2 other isoform, or with tags, fused parts or gaps G12V): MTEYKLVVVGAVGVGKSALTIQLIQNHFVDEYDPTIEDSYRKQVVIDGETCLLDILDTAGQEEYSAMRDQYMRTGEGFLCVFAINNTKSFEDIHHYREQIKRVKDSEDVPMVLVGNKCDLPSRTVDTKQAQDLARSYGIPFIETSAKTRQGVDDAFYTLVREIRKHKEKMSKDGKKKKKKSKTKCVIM
Chain of KRAS G12V binding to BRAF (P62937 whole entry): as the sequence (P62937 whole entry) above

SMILES	conjugation with GSH (in words) [1]	half-life at 1 μM (GSH) [h]	IC50 ([2]; Homo sapiens) [nM]	IC50 (KRAS G12D in AGS cells; Homo sapiens) [nM]	IC50 (KRAS G12V in SW620; [8]) [nM]	IC50 (NCI-H358 cells; Homo sapiens) [nM]	IC50 (AGS cells; Homo sapiens) [nM]	IC50 (SW620 cells; [9]) [nM]	CL_hep (Human) [3] [mL/min/kg]	Clearance Category ([3]; human hepatocytes)	IC50 (KRAS G12C-BRAF complex [4]) [nM]	IC50 (KRAS G12C-BRAF complex [5]) [nM]	IC50 [6] [nM]	IC50 [7] [nM]	IC50 [2] [nM]	IC50 (KRAS G12D in AGS cells) [nM]	IC50 (KRAS G12V in SW620; SW620 cells) [nM]	IC50 (NCI-H358 cells) [nM]	IC50 (AGS cells) [nM]	IC50 (SW620 cells; SW620, 72 hours) [nM]
CCn1c(-c2cccnc2[C@H](C)OC)c2c3cc(ccc31)-c1cc(O)cc(c1)C[C@H](NC(=O)[C@H](C(C)C)N(C)C(=O)C1CN(C(=O)CCl)C1)C(=O)N1CCC[C@H](N1)C(=O)OCC(C)(C)C2 [RM461, reference compound]	formed conjugation with GSH	5	7	> 10000	> 10000	22	2710	4040	16.4	high (CL_hep (mL/min/kg)>16.24 is high clearance)	–	–	–	–	–	–	–	–	–	–
CO[C@@H](C)c1ncc(N2CCN(C)CC2)cc1-c1c2c3cc(ccc3n1CC(F)(F)F)-c1csc(n1)C[C@H](NC(=O)[C@H](C(C)C)N1CC[C@]3(CCN(C(=O)[C@H](F)Cl)C3)C1=O)C(=O)N1CCC[C@H](N1)C(=O)OCC(C)(C)C2 [Example 24, (2S)-2-[(5R)-7-[(2R)-2-chloro-2-fluoro-acetyl]-1-oxo-2,7-diazaspiro[4.4]nonan-2-yl]-N-[(7S,13S)-(20M)-20-[2-[(1S)-1-methoxyethyl]-5-(4-methylpiperazin-1-yl)-3-pyridyl]-17,17-dimethyl-8,14-dioxo-21-(2,2,2-trifluoroethyl)-15-oxa-4-thia-9,21,27,28-tetrazapentacyclo[17.5.2.12,5.19,13.022,26]octacosa-1(25),2,5(28),19,22(26),23-hexaen-7-yl]-3-methyl-butanamide]	–	–	–	–	–	–	–	–	–	–	36	21	> 10000	> 10000	2	65	42	< 0.6	886	489
CC(C)[C@@H](C(=O)N[C@H]1Cc2cc(O)cc(c2)-c2ccc3c(C(C)(C)C#N)cn(c3c2)CC(C)(C)COC(=O)[C@@H]2CCCN(N2)C1=O)N1CCCC2(CCN(C(=O)CCl)C2)C1=O (stereo partly shown) [RM351, reference compound]	formed conjugation with GSH	4.3	356	> 10000	> 10000	1390	2100	4810	15.5	–	–	–	–	–	–	–	–	–	–	–
CCn1c(-c2cc(N3CCN(C)CC3)cnc2[C@H](C)OC)c2c3cc(ccc31)-c1csc(n1)C[C@H](NC(=O)[C@H](C(C)C)N1CCCC3(CCN(C(=O)[C@H](F)Cl)C3)C1=O)C(=O)N1CCC[C@H](N1)C(=O)OCC(C)(C)C2 (stereo partly drawn) [Example 18, (2S)-2-[2-[(2R)-2-chloro-2-fluoro-acetyl]-6-oxo-2,7-diazaspiro[4.5]decan-7-yl]-N-[(7S,13S)-21-ethyl-(20M)-20-[2-[(1S)-1-methoxyethyl]-5-(4-methylpiperazin-1-yl)-3-pyridyl]-17,17-dimethyl-8,14-dioxo-15-oxa-4-thia-9,21,27,28-tetrazapentacyclo[17.5.2.12,5.19,13.022,26]octacosa-1(25),2,5(28),19,22(26),23-hexaen-7-yl]-3-methyl-butanamide]	–	–	3	26	28	0.7	19	26	–	–	20	68	> 10000	> 10000	–	–	–	–	–	–
CCn1c(-c2cccnc2[C@H](C)OC)c2c3cc(ccc31)-c1cc(O)cc(c1)C[C@H](NC(=O)[C@H](C(C)C)N(C)C(=O)[C@H]1CCN(C(=O)C(F)Cl)C1)C(=O)N1CCC[C@H](N1)C(=O)OCC(C)(C)C2 (stereo partly drawn) [Example 2, (3S)-1-[(2R)-2-chloro-2-fluoro-acetyl]-N-[(1S)-1-[[(8S,14S)-22-ethyl-4-hydroxy-(21M)-21-[2-[(1S)-1-methoxyethyl]-3-pyridyl]-18,18-dimethyl-9,15-dioxo-16-oxa-10,22,28-triazapentacyclo[18.5.2.12,6.110,14.023,27]nonacosa-1(26),2,4,6(29),20,23(27),24-heptaen-8-yl]carbamoyl]-2-methyl-propyl]-N-methyl-pyrrolidine-3-carboxamide]	–	–	3	56	37	2	83	156	–	–	68	6	298	25	–	–	–	–	–	–
